Measurements published in PMC12645191, “Dicarboxylate and dicarboxylic acid appended supramolecular self-associating amphiphiles as antimicrobial agents against high priority bacterial pathogens” (Organic & Biomolecular Chemistry, 2025).
≈ marks a conversion by molar mass, not a printed value. Where “and” joins values, the source holds several entries; their conditions need not be identical. Equal values may be shown once.

Legend:
[1] = kinetic solubility determination in PBS pH 7.4; settings: pH 7.4, aqueous buffer, kinetic from dmso stock
[2] = quantitative (Q) 1H NMR spectroscopy, proportion of SSA becoming NMR silent (higher-order aggregates); type: physicochemical
Description: To confirm the presence of higher order self-associative structures quantitative (Q) ^1H NMR spectroscopy studies were undertaken at 5.6 mM in D2O 5% EtOH. Here the ^1H NMR resonances attributed to the EtOH are used as an internal standard.
Table S1 – Overview of results of the quantitative (Q) 1H NMR studies for 1, 3, 5, 7 and 9
5.0 % EtOH . Values given in % represent the observed proportion of the SSA that has become
Table S2 – Overview of results of the quantitative (Q) 1H NMR studies for 2, 4, 6, 8 and 10
5.0 % EtOH. Values given in % represent the observed proportion of anion and cation that has

[3] = tensiometry: critical aggregate concentration (CAC) and surface tension; type: physicochemical; settings: listed as 4
Description: As the (Q) ^1H NMR spectroscopy experiments conducted at 5.6 mM in a D2O 5.0% EtOH solution confirmed the presence of higher-order self-associated structures with solid-like properties, concentration dependent surface tension measurements, obtained through tensiometry, were used to calculate critical aggregate concentration (CAC). Here the CAC is defined as the point at which an increase in SSA concentration no longer decreases surface tension but instead results in the formation of higher-order self-associated structures.

[4] = dynamic light scattering (DLS) of SSA aggregates; type: physicochemical; settings: 5.6 mM, H2O 5.0% EtOH, 298 K; listed as 4
Description: Dynamic light scattering (DLS) and zeta potential measurements in H2O 5.0% EtOH were used to determine the hydrodynamic diameter (dH) and stability of the higher-order SSA aggregates detected by (Q) ^1H NMR spectroscopy at 5.6 mM, Table 1. […] However, we are unable to confidently report a dH for 1 due to the instability of this system, which is supported by a zeta potential value of −26 mV, obtained for this SSA under the same experimental conditions. […] Due to the instability of these systems in the absence of solvent, attempts to further characterise these systems through SEM or AFM are not possible.[48]

P. aeruginosa PAO1 = assay: inhibition of bacterial growth, OD600 after 20 h; type: cell-based, Pseudomonas aeruginosa; settings: SSA 5.0 mM, 2.5% ethanol, negative = enhanced growth, listed as 4
Description: (§1) With the self-associative properties of 1–10 established, the antimicrobial activity of these SSAs were determined against a panel of clinically relevant, high-priority pathogens including: P. aeruginosa PAO1; Klebsiella pneumonia (K. pneumoniae) M6; E. coli NCTC 12923; Acinetobacter baumannii (A. baumannii) ATCC 17978; S. aureus ATCC 9144; Enterococcus faecalis (E. faecalis) NCTC 775; and Enterococcus faecium (E. faecium) NCTC 12204. […] However, it should be noted that the SSA stock solution was prepared in a H2O 5% EtOH solution, to ensure that the SSA aggregates formed were in line with those characterised within the scope of the SSA self-association studies.
(§2) Section 3: Biological methods
(§3) These methods were taken directly from UK Health and Security Office (UKHSA) standard […]
(§4) Preparation of Luria Broth media (LB): Yeast extract (5.0 g), tryptone (10.0 g) and sodium chloride (10.0 g) were dissolved in dH₂O (1.0 L) then divided into bottles and autoclaved.
(§5) Preparation of Luria Broth (LB) agar plates: Agar (6.0 g) was added to LB (400 mL) and autoclaved. Once cool, the LB agar was poured into sterile petri dishes under sterile conditions and allowed to set. LB plates were stored at 4 °C until use.
(§6) Preparation of bacterial plates: Sterile LB agar plates were streaked using streaked using the desired bacteria i) Pseudomonas aeruginosa (P.aeruginosa) PAO1, ii) Klebsiella pneumoniae (K. pneumoniae) M6 iii) E. coli NCTC 12923 and iv) Acinetobacter baumannii (A. baumannii) ATCC 17978 and Gram-positive i) Staphylococcus aureus (S. aureus) ATCC 9144 ii) Enterococcus faecalis (E. faecalis) NCTC 775 and iii) Enterococcus faecium (E. faecium ) NCTC 12204, then incubated at 37 °C overnight.
(§7) Preparation of Inoculum: An initial culture was made up by inoculating LB media (5 mL) with a single colony of bacteria under sterile conditions and incubated at 37 °C with shaking overnight. The following day, overnight bacterial cultures were subcultured into fresh LB medium to a starting OD600 of 0.01.
(§8) Preparation of 96 well microplate for MIC50: The 1:100 cell suspension (150 µL) was dispensed into individual wells under sterile conditions. SSAs (30 µL) were added to the wells to equal a total volume of 180 µL in the wells. Six repeats of each concentration for each SSA were created each plate. The plates were sealed using parafilm, then incubated at 37 °C in a microplate reader for 20 hours. OD600 endpoint data was used to generate growth curves. […]

K. pneumoniae M6 = assay: inhibition of bacterial growth, OD600 after 20 h; type: cell-based, Klebsiella pneumoniae; settings: SSA 5.0 mM, 2.5% ethanol, negative = enhanced growth, listed as 4
Description: as §1, §2, §3, §4, §5, §6, §7, §8

E. coli NCTC 12923 = assay: inhibition of bacterial growth, OD600 after 20 h; type: cell-based, Escherichia coli; settings: SSA 5.0 mM, 2.5% ethanol, negative = enhanced growth, listed as 4
Description: as §1, §2, §3, §4, §5, §6, §7, §8

A. baumannii ATCC 17978 = assay: inhibition of bacterial growth, OD600 after 20 h; type: cell-based, Acinetobacter baumannii; settings: SSA 5.0 mM, 2.5% ethanol, negative = enhanced growth, listed as 4
Description: as §1, §2, §3, §4, §5, §6, §7, §8

S. aureus ATCC 9144 = assay: inhibition of bacterial growth, OD600 after 20 h; type: cell-based, Staphylococcus aureus; settings: SSA 5.0 mM, 2.5% ethanol, negative = enhanced growth, listed as 4
Description: as §1, §2, §3, §4, §5, §6, §7, §8

E. faecalis NCTC 775 = assay: inhibition of bacterial growth, OD600 after 20 h; type: cell-based, Enterococcus faecalis; settings: SSA 5.0 mM, 2.5% ethanol, negative = enhanced growth, listed as 4
Description: as §1, §2, §3, §4, §5, §6, §7, §8

E. faecium NCTC 12204 = assay: inhibition of bacterial growth, OD600 after 20 h; type: cell-based, Enterococcus faecium; settings: SSA 5.0 mM, 2.5% ethanol, negative = enhanced growth, listed as 4
Description: as §1, §2, §3, §4, §5, §6, §7, §8

[5] = tested on: all Gram-positive bacteria tested; assay: inhibition of bacterial growth, span over the Gram-positive panel; type: cell-based, S. aureus, E. faecalis, E. faecium; settings: SSA 5.0 mM, 20 hours; read-out: inhibition against all Gram-positive bacteria tested (span)
Description: as §1, §2, §3, §4
Preparation of Luria Broth (LB) agar plates: Agar (6.0 g) was added to LB (400 mL) and autoclaved. […]
Preparation of 96 well microplate for MIC50: The 1:100 cell suspension (150 µL) was dispensed into individual wells under sterile conditions. […] The plates were sealed using parafilm, then incubated at 37 °C in a microplate reader for 20 hours. […]

[6] = 5.6 mM, D2O 5.0% EtOH, 298 K, listed as 4

O=C(O)Cc1ccccc1Nc1c(Cl)cccc1Cl [Diclofenac, reference compound]
solubility ([1]; PBS, Solubility in PBS pH 7.4, kinetic, upper limit set at 300 µM): 281 µM (≈ 83.2 µg/mL)

CC(=O)[C@H]1CC[C@H]2[C@@H]3CCC4=CC(=O)CC[C@]4(C)[C@H]3CC[C@]12C [Progesterone, reference compound]
solubility [1]: 14.5 µM (≈ 4.57 µg/mL)

O=C(O)CC[C@@H](NC(=O)Nc1ccc(C(F)(F)F)cc1)C(=O)O [SSA 4]
(Q) 1H NMR spectroscopy, proportion NMR silent, acid or anion [2, 6]: 41%
(Q) 1H NMR spectroscopy, proportion NMR silent, cation [2, 6]: 43.2% and 43%
(Q) 1H NMR, proportion NMR silent, SSA acid or anion ([2]; ~112 mM, DMSO-d6 1.0% DCM): 0%
(Q) 1H NMR, proportion NMR silent, cation ([2]; ~112 mM, DMSO-d6 1.0% DCM): 0%
CAC ([3]; H2O 5.0% EtOH, 298 K): 22.26 mM and 22 mM
ST at CAC ([3]; H2O 5.0% EtOH, 298 K): 38 mN m^−1
Surface tension at CAC ([3]; H2O/5.0 % EtOH): 38.35 mN/m
DLS Peak 2 maxima [4]: 5118 nm
Polydispersity index (%) [4]: 27.4 (± 0.8) %
dH (DLS intensity distribution peak 1 maxima) [4]: 255 nm
Percentage inhibition of bacterial growth, PAO1 (P. aeruginosa) (P. aeruginosa PAO1): 10.30% and 10%
Percentage inhibition of bacterial growth, M6 (K. pneumoniae) (K. pneumoniae M6): 19.93% and 20%
Percentage inhibition of bacterial growth, NCTC 12923 (E. coli) (E. coli NCTC 12923): 39.02% and 39%
Percentage inhibition of bacterial growth, ATCC 17978 (A. baumannii) (A. baumannii ATCC 17978): -20.93% and −21%
Percentage inhibition of bacterial growth, ATCC 9144 (S. aureus) (S. aureus ATCC 9144): 98.85% and 99%
Percentage inhibition of bacterial growth, NCTC 775 (E. faecalis) (E. faecalis NCTC 775): 98.82% and 99%
Percentage inhibition of bacterial growth, NCTC 12204 (E. faecium) (E. faecium NCTC 12204): 99.74% and 100%
inhibition at 5000 µM [5]: 99 to 100%
